According to the NIST ThermoML archive (doi:10.1021/acs.jced.7b00783):
± gives the expanded uncertainty stated by the source.

Conditions: Liquid, Ebulliometric method (Recirculating still)

Structure (SMILES) | vapor or sublimation pressure (352.72 K) | vapor or sublimation pressure (351.45 K)
CCC(C)=O [butanone] | 101.3 ± 0.46 kPa | 
CCO [ethanol] |  | 101.3 ± 0.46 kPa
